In patent publication US20250368649A1, “TETRAHYDROPYRIDOPYRIMIDINE PAN-KRAS INHIBITORS” (Mirati Therapeutics, Inc., priority 2022, published 2025):

Key:
[1] = target: KRas G12C (Homo sapiens, UniProt P01116, G12C); format: binding; details: single point, 10 nM compound, read-out: Binding to KRas (% inhibition at 10 nM) G12C
[2] = target: KRas G12A (Homo sapiens, UniProt P01116, G12A); format: binding; details: single point, 10 nM compound, read-out: Binding to KRas (% inhibition at 10 nM) G12A
[3] = test system: MKN1 cells; test: Inhibition of KRas-mediated phosphorylation of ERK (Cisbio HTRF pERK), MKN1 cells; format: cell-based; details: Homo sapiens, MKN-1, 3 hour compound incubation, Cisbio pERK HTRF
Method in brief: (§1)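 On the first day, plate 6,000 cells into each well in RPMI medium with 10% fetal bovine serum.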

[4] = test system: PSN1 cells; test: Inhibition of KRas-mediated phosphorylation of ERK (Cisbio HTRF pERK), PSN1 cells; format: cell-based; details: Homo sapiens, PSN1, 3 h, 3 hour compound incubation, Cisbio pERK HTRF
Method in brief: as §1

[5] = target: KRas G12D (Homo sapiens, UniProt P01116, G12D); test: biochemical; details: Binding to KRas (IC50 nM) G12D, TR-FRET displacement, KRas G12D
KRas G12D, sequence (P01116 1-169 isoform P01116-2 G12D): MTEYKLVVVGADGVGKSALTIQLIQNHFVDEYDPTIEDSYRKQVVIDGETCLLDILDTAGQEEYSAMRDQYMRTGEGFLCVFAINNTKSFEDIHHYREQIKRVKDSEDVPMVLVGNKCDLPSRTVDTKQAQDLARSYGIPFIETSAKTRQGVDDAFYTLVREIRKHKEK

[6] = target: KRas WT (Homo sapiens, UniProt P01116); test: KRas binding assay (TR-FRET displacement), KRas WT; details: single point, 10 nM compound
KRas WT, sequence (P01116 1-169 isoform P01116-2): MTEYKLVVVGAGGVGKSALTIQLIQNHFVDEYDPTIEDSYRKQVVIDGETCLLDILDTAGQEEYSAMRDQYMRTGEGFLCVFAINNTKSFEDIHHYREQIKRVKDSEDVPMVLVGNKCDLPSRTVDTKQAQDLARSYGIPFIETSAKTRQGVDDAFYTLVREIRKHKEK

[7] = target: KRas Q61H (Homo sapiens, UniProt P01116, Q61H); test: KRas binding assay (TR-FRET displacement), KRas Q61H; details: single point, 10 nM compound
KRas Q61H, sequence (P01116 1-169 isoform P01116-2 Q61H): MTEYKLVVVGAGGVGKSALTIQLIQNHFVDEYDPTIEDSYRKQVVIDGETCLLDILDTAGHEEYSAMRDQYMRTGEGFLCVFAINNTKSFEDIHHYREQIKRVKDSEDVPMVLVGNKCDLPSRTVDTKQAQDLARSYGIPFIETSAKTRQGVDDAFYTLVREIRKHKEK

[8] = test system: A549 cells; test: Inhibition of KRas-mediated phosphorylation of ERK (Cisbio HTRF pERK), A549 cells; format: cell-based; details: Homo sapiens; for IC50: A549, 3 h, 3 hr compound incubation, Cisbio pERK HTRF; for inhibition at 0.1 µM: single point at 100 nM, 3 hrs compound incubation
[9] = test system: H358 cells; test: Inhibition of KRas-mediated phosphorylation of ERK (Cisbio HTRF pERK), H358 cells; format: cell-based; details: Homo sapiens; for IC50: NCI-H358, 3 h, 3 hr compound incubation, Cisbio pERK HTRF; for inhibition at 0.1 µM: NCI-H358, single point at 100 nM, 3 hrs compound incubation
[10] = test system: ASPC1 cells; test: Inhibition of KRas-mediated phosphorylation of ERK (Cisbio HTRF pERK), ASPC1 cells; format: cell-based; details: Homo sapiens, AsPC-1 cells; for IC50: ASPC1, 3 h, 3 hr compound incubation, Cisbio pERK HTRF
[11] = test system: HCT116 cells; test: Inhibition of KRas-mediated phosphorylation of ERK (Cisbio HTRF pERK), HCT116 cells; format: cell-based; details: Homo sapiens, HCT-116, 3 h, 3 hr compound incubation, Cisbio pERK HTRF
[12] = test system: H460 cells; test: Inhibition of KRas-mediated phosphorylation of ERK (Cisbio HTRF pERK), H460 cells; format: cell-based; details: Homo sapiens, NCI-H460, 3 h, 3 hr compound incubation, Cisbio pERK HTRF
[13] = target: KRas G12R (Homo sapiens, UniProt P01116, G12R); test: biochemical; details: Binding to KRas (IC50 nM) G12R, TR-FRET displacement, KRas G12R
KRas G12R, sequence (P01116 1-169 isoform P01116-2 G12R): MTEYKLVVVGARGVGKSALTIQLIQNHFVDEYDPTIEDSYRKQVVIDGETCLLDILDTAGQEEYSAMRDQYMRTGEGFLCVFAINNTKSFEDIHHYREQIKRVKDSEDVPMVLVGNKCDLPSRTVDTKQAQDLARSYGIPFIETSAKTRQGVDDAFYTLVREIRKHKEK

[14] = target: KRas G12V (Homo sapiens, UniProt P01116, G12V); test: biochemical; details: Binding to KRas (IC50 nM) G12V, TR-FRET displacement, KRas G12V
KRas G12V, sequence (P01116 1-169 isoform P01116-2 G12V): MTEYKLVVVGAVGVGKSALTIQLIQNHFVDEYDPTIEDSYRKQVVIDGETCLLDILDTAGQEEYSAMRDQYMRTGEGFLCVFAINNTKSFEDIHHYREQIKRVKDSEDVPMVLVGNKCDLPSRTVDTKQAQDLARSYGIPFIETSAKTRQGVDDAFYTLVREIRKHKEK

[15] = target: KRas G13D (Homo sapiens, UniProt P01116, G13D); format: binding; details: single point, 10 nM compound, read-out: Binding to KRas (% inhibition at 10 nM) G13D
KRas G13D, sequence (P01116 1-169 isoform P01116-2 G13D): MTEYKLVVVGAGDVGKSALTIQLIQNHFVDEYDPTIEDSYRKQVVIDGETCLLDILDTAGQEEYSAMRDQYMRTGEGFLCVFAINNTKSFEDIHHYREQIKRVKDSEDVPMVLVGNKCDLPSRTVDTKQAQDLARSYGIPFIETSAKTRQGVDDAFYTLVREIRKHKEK

[16] = test system: H727 cells; test: Inhibition of KRas-mediated phosphorylation of ERK (Cisbio HTRF pERK), H727 cells; format: cell-based; details: Homo sapiens; for IC50: NCI-H727, 3 h, 3 hr compound incubation, Cisbio pERK HTRF
[17] = target: KRas G12S (Homo sapiens, UniProt P01116, G12S); format: binding; details: single point, 10 nM compound, read-out: Binding to KRas (% inhibition at 10 nM) G12S
KRas G12S, sequence (P01116 1-169 isoform P01116-2 G12S): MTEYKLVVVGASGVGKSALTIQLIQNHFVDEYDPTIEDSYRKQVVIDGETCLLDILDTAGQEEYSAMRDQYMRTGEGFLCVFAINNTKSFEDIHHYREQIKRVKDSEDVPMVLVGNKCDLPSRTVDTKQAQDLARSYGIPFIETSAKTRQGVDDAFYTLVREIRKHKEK

KRas G12C, sequence (P01116 1-169 isoform P01116-2 G12C): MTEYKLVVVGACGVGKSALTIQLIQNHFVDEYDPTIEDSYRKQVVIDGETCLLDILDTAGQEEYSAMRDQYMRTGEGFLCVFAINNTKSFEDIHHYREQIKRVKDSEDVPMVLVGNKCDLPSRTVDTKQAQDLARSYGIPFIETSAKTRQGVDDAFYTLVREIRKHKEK
KRas G12A, sequence (P01116 1-169 isoform P01116-2 G12A): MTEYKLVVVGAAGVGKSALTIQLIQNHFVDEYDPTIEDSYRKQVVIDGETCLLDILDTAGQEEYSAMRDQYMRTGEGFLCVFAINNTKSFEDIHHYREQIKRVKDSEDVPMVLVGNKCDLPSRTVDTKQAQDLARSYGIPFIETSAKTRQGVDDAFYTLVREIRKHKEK

SMILES | inhibition at 0.01 µM [1] [%] | inhibition at 0.01 µM [2] [%] | IC50 [3] [nM] | IC50 [4] [nM] | IC50 [5] [nM] | inhibition at 0.01 µM [6] [%] | inhibition at 0.01 µM [7] [%] | IC50 [8] [nM] | inhibition at 0.1 µM [8] [%] | IC50 [9] [nM] | inhibition at 0.1 µM [9] [%] | IC50 [10] [nM] | IC50 [11] [nM] | IC50 [12] [nM] | IC50 [13] [nM] | IC50 [14] [nM] | inhibition at 0.01 µM [15] [%] | IC50 [16] [nM] | inhibition at 0.01 µM [17] [%] | further results
CCc1c(F)ccc2cc(O)cc(N3CCc4c(nc(OC[C@@]56CCCN5C[C@H](F)C6)nc4N4CCCn5nc(C(=O)NCCOCCOC)cc5C4)C3)c12 [Example 374, 5-(7-(8-ethyl-7-fluoro-3-hydroxynaphthalen-1-yl)-2-(((2R,7aS)-2-fluorohexahydro-1H-pyrrolizin-7a-yl)methoxy)-5,6,7,8-tetrahydropyrido[3,4-d]pyrimidin-4-yl)-N-(2-(2-methoxyethoxy)ethyl)-5,6,7,8-tetrahydro-4H-pyrazolo[1,5-a][1,4]diazepine-2-carboxamide] | 99 | 96 | 13.5 | 4820 | < 2 | 95 | 96 | 25 | 57 | 5 | 99 | 4 | 105 | 35 | < 2 | < 2 | 94 | 6 | 99 | 
CCc1c(F)ccc2cc(O)cc(N3CCc4c(nc(OC[C@@]56CCCN5C[C@H](F)C6)nc4N4CCCn5nc(C(=O)NCCOC)cc5C4)C3)c12 [Example 375, 5-(7-(8-ethyl-7-fluoro-3-hydroxynaphthalen-1-yl)-2-(((2R,7aS)-2-fluorohexahydro-1H-pyrrolizin-7a-yl)methoxy)-5,6,7,8-tetrahydropyrido[3,4-d]pyrimidin-4-yl)-N-(2-methoxyethyl)-5,6,7,8-tetrahydro-4H-pyrazolo[1,5-a][1,4]diazepine-2-carboxamide] | 98 | 94 | 16.6 | 3500 | < 2 | 93 | 93 | 20 | 68 | 4 | 102 | 4 | 91 | 36 | < 2 | < 2 | 93 | 7 | 98 | 
CCc1c(F)ccc2cc(O)cc(N3CCc4c(nc(OC[C@@]56CCCN5C[C@H](F)C6)nc4N4CCCn5nc(C(=O)NC6CCC6)cc5C4)C3)c12 [Example 378, N-cyclobutyl-5-(7-(8-ethyl-7-fluoro-3-hydroxynaphthalen-1-yl)-2-(((2R,7aS)-2-fluorohexahydro-1H-pyrrolizin-7a-yl)methoxy)-5,6,7,8-tetrahydropyrido[3,4-d]pyrimidin-4-yl)-5,6,7,8-tetrahydro-4H-pyrazolo[1,5-a][1,4]diazepine-2-carboxamide] | 97 | 90 | 26.2 | 5170 | < 2 | 91 | 91 | 39 | 69 | 9 | 105 | 3 | 160 | 46 | < 2 | < 2 | 90 | 7 | 96 | 
CCNC(=O)c1nn2c(c1C)CN(c1nc(OC[C@@]34CCCN3C[C@H](F)C4)nc3c1CCN(c1cc(O)cc4ccc(F)c(CC)c14)C3)CCC2 [Example 379, N-ethyl-5-(7-(8-ethyl-7-fluoro-3-hydroxynaphthalen-1-yl)-2-(((2R,7aS)-2-fluorohexahydro-1H-pyrrolizin-7a-yl)methoxy)-5,6,7,8-tetrahydropyrido[3,4-d]pyrimidin-4-yl)-3-methyl-5,6,7,8-tetrahydro-4H-pyrazolo[1,5-a][1,4]diazepine-2-carboxamide] | 99 | 96 | 12.3 | 5330 | < 2 | 93 | 92 | 17 | 91 | 3 | 105 | 2 | 159 | 33 | < 2 | < 2 | 92 | 3 | 98 | 
CCc1c(F)ccc2cc(O)cc(N3CCc4c(nc(OC[C@@]56CCCN5C[C@H](F)C6)nc4N4CCCn5nc(C(=O)NC)c(C)c5C4)C3)c12 [Example 380, 5-(7-(8-ethyl-7-fluoro-3-hydroxynaphthalen-1-yl)-2-(((2R,7aS)-2-fluorohexahydro-1H-pyrrolizin-7a-yl)methoxy)-5,6,7,8-tetrahydropyrido[3,4-d]pyrimidin-4-yl)-N,3-dimethyl-5,6,7,8-tetrahydro-4H-pyrazolo[1,5-a][1,4]diazepine-2-carboxamide] | 99 | 96 | 10.8 | 4720 | < 2 | 93 | 95 | 2 | 81 | 3 | 93 | 2 | 95 | 30 | < 2 | < 2 | 94 | 5 | 99 | inhibition at 0.1 µM ([10]; ASPC1, single point at 100 nM, 3 hrs compound incubation): 94%; inhibition at 0.1 µM ([16]; NCI-H727, single point at 100 nM, 3 hrs compound incubation): 69%
CCc1c(F)ccc2cc(O)cc(N3CCc4c(nc(OC[C@@]56CCCN5C[C@H](F)C6)nc4N4CCCn5nc(C(=O)N(C)C(C)C)cc5C4)C3)c12 [Example 381, 5-(7-(8-ethyl-7-fluoro-3-hydroxynaphthalen-1-yl)-2-(((2R,7aS)-2-fluorohexahydro-11H-pyrrolizin-7a-yl)methoxy)-5,6,7,8-tetrahydropyrido[3,4-d]pyrimidin-4-yl)-N-isopropyl-N-methyl-5,6,7,8-tetrahydro-4H-pyrazolo[1,5-a][1,4]diazepine-2-carboxamide] | 99 | 97 | 7 | 3620 | < 2 | 97 | 97 | 7 | 85 | 1 | 98 | 2 | 45 | 11 | < 2 | < 2 | 97 | 3 | 99 | 
CCc1c(F)ccc2cc(O)cc(N3CCc4c(nc(OC[C@@]56CCCN5C[C@H](F)C6)nc4N4CCCn5nc(C(=O)N(C)CCOC)cc5C4)C3)c12 [Example 382, 5-(7-(8-ethyl-7-fluoro-3-hydroxynaphthalen-1-yl)-2-(((2R,7aS)-2-fluorohexahydro-1H-pyrrolizin-7a-yl)methoxy)-5,6,7,8-tetrahydropyrido[3,4-d]pyrimidin-4-yl)-N-(2-methoxyethyl)-N-methyl-5,6,7,8-tetrahydro-4H-pyrazolo[1,5-a][1,4]diazepine-2-carboxamide] | 100 | 98 | 8.4 | 2290 | < 2 | 97 | 97 | 15 | 80 | 1 | 99 | 2 | 51 | 25 | < 2 | < 2 | 98 | 4 | 99 | 
